# Test results published in publication PMC10424178, “Discovery of 5-Phenylpyrazolopyrimidinone Analogs as Potent Antitrypanosomal Agents with In Vivo Efficacy” (Journal of Medicinal Chemistry, 2023).
# Entries after “also recorded” stand apart in the source; their conditions may differ.
# Assays:
# PDE5 = PDE5 (Homo sapiens, UniProt O76074); test: PDE5 inhibition; type: biochemical
# human PDE4D2 = human PDE4D2 (Homo sapiens, UniProt Q08499); test: Eurofins Safety-47 panel, PDE4D2; settings: read-out: inhibition of human PDE4D2
# Chain of human PDE4D2 (Q08499 303-809): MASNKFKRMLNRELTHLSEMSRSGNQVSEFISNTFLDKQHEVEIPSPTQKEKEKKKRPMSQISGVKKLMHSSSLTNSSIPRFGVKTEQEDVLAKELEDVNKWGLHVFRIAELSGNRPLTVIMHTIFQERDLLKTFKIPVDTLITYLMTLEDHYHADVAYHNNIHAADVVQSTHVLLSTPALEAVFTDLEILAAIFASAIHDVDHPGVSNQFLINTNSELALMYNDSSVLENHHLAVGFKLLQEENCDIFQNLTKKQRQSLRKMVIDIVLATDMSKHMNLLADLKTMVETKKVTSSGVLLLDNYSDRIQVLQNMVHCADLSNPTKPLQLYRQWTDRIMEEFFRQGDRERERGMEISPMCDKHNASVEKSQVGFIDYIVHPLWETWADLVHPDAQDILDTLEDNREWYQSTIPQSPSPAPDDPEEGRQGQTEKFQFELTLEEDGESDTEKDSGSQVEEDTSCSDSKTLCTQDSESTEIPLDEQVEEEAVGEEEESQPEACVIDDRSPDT
# TbrPDEB1 = TbrPDEB1 (Trypanosoma brucei, UniProt Q8WQX9); test: TbrPDEB1 enzyme assay (PDELight HTS cAMP phosphodiesterase kit); type: biochemical, T. brucei
# Chain of TbrPDEB1 (Q8WQX9 entry or part of it): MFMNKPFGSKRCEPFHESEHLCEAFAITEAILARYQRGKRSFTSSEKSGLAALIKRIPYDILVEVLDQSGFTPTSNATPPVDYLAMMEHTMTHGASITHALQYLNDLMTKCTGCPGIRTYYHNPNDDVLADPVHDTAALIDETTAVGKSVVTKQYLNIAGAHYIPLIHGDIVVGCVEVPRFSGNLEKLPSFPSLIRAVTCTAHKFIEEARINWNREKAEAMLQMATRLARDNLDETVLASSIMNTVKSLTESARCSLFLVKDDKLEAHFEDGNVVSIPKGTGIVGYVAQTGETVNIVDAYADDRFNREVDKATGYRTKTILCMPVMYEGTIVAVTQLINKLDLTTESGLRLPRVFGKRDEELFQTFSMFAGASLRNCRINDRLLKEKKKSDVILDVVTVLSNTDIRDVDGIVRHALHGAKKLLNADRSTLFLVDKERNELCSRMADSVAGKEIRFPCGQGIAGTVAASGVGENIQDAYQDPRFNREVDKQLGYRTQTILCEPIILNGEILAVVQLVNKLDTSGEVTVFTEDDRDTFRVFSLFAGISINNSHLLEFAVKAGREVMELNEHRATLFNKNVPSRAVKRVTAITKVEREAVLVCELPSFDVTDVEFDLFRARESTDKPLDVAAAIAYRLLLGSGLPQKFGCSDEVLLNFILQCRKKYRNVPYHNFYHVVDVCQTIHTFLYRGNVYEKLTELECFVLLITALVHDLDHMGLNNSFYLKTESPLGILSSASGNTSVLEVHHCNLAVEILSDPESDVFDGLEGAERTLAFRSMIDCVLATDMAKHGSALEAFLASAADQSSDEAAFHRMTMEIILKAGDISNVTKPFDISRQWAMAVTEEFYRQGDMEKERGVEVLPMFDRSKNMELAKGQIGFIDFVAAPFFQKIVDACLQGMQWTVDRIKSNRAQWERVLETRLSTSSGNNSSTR
# T. b. brucei [1] = test: Acute (stage-I) mouse model of T. b. brucei infection; type: in vivo
# T. b. brucei [2] = test: Antitrypanosomal assay, T. brucei Squib 427, resazurin viability; type: cell-based; settings: for times more potent than 1 against T. b. brucei: relative to 1
smiles,measurement,setting,value
"CC(C)c1n[nH]c2c(=O)[nH]c(-c3ccc(F)cc3)nc12 [compound 30, 5-(4-Fluorophenyl)-3-isopropyl-1,6-dihydro-7H-pyrazolo[4,3-d]pyrimidin-7-one]",inhibition at 10 µM,PDE5,52%
same,inhibition at 10 µM,human PDE4D2,75%
same,TbrPDEB1 inhibition pKi,TbrPDEB1,inactive
same,time by which all animals relapsed and succumbed,T. b. brucei [1]; 25 mg/kg b.i.d. for 5 days,≤ 11 dpi
same,outcome of treatment (parasitemia / cure),"T. b. brucei [1]; 50 mg/kg PO twice daily for 5 consecutive days, follow-up 60 dpi",all infected mice were cured; also recorded: apparent full clearance of parasitemia; also recorded: complete cure
"COc1ccccc1-c1nc2c(C(C)C)n[nH]c2c(=O)[nH]1 [compound 22, 3-Isopropyl-5-(2-methoxyphenyl)-1,6-dihydro-7H-pyrazolo[4,3-d]pyrimidin-7-one]",reduction in potency against T. b. brucei compared with 15,T. b. brucei [2]; relative to 15,25 fold
"CC(C)c1n[nH]c2c(=O)[nH]c(-c3ccc(N4CCN(C)CC4)cc3)nc12 [compound 45, 3-Isopropyl-5-(4-(4-methylpiperazin-1-yl)phenyl)-1,6-dihydro-7H-pyrazolo[4,3-d]pyrimidin-7-one]",IC50,"T. b. brucei [2]; Trypanosoma brucei, T. brucei Squib 427 strain, 72 h drug exposure, highest concentration 64 μM, mean of at least two independent experiments, read-out: T. b. brucei pIC50 (converted)",20 µM
"CC(C)c1n[nH]c2c(=O)[nH]c(-c3ccccc3)nc12 [compound 15, 3-Isopropyl-5-phenyl-1,6-dihydro-7H-pyrazolo[4,3-d]pyrimidin-7-one]",times more potent than 1 against T. b. brucei,T. b. brucei [2],125 times
"CC(C)c1n[nH]c2c(=O)[nH]c(-c3ccncc3)nc12 [compound 16, 3-Isopropyl-5-(pyridin-4-yl)-1,6-dihydro-7H-pyrazolo[4,3-d]pyrimidin-7-one]",times more potent than 1 against T. b. brucei,T. b. brucei [2],16 times
